# Test results published in US20180015070A1, “METHODS AND COMPOSITIONS FOR UPREGULATING ENDOGENOUS ANTIOXIDANT SYSTEMS” (USANA Health Sciences, Inc., priority 2016, published 2018).
# Like-named read-outs stand apart in the source and are kept apart here. Marks after values point to notes of the source that are not given here.
# How the values were obtained:
# Nrf2 = Nrf2 signaling fluorescent reporter assay in human retinal epithelial cell line; format: cell-based; conditions: for minimum inducing concentration (Nrf2): human retinal epithelial cell line
# Method: The assays were carried out with a fluorescent reporter assay that utilized a human retinal epithelial cell line. The assays also included validation by RT-PCR (reverse transcription polymerase chain reaction) of Nrf2 target genes. The human retinal epithelial cell line was purchased from ATCC (American Type Cell Culture, Manassas, Va.) and was configured to function as a fluorescent reporter assay. Test solutions of each of the alpha lipoic acid, resveratrol, curcumin, EGCG, Olivol®, rutin, quercetin, and hesperetin were prepared by serial dilution. Control solutions were also prepared. Positive control solutions of a known Nrf2 agonist, L-sulphoraphane was also prepared. Each test solution was then assayed for Nrf2 signaling activity using the fluorescent reporter assay and compared to control assays. The positive control solutions were also tested.
# [1] = system: C. elegans strain CB5586 worms; test: phenotypic lifespan screening with C. elegans; format: in vivo; conditions: for anti-ageing activity / effect on chronological lifespan: over the concentrations tested; for population age in days at 25% mortality: DMSO control 11; for population age in days at 50% mortality: DMSO control 14; for population age in days at 75% mortality: DMSO control 16
# Method: Dilutions of the test formulations were applied to individual populations of C. elegans and the lifespan of each population was monitored. Any changes in the lifespan of an individual population compared to a control population were recorded and correlated to the respective test formulation (N356 or N357) and the respective dilution (0.1 mg/ml, 1 mg/ml, and 10 mg/ml).
# The N356 and N357 formulations were each prepared as individual 100 mg/ml stock solutions in dimethyl sulfoxide (DMSO). Serial dilutions of each stock solution were then prepared at 0.1 mg/ml, 1 mg/ml, and 10 mg/ml in DMSO. Control solutions of DMSO only were also prepared. Synchronous aged adult populations of C. elegans strain CB5586 worms were prepared. The CB5586 strain comprises a pharyngeal GFP (green fluorescent protein) tag and a mutation in the bus-5 gene. The pharyngeal GFP tag allows for fluorescent images of the worm populations to be taken. The mutation in the bus-5 gene causes the loss of normal cuticle antigens that permits the cuticle of the worms to become permeable to the test formulations and allow direct uptake of the test formulations to avoid interaction of the test formulations with protective mechanisms of the gut channel. Each serial dilution of each test formulation was added to a separate population of the prepared worms. The control solutions were also added to separate populations of the prepared worms. The populations of the prepared worms were then maintained on standard nematode growth media (NGM) agar plates at 20° C. with sufficient food (Escherichia coli strain OP-50).
# Each worm population was then monitored by fluorescent imaging to determine the number of living and dead worms as a function of time. The fluorescent imaging was analyzed by software that recognized and counted worms based on their fluorescent intensity compared to background fluorescence. […] The ability to distinguish between living and dead worms allowed the number of living worms and cumulative number of dead worms to be monitored against time. Worm populations from a selection of fluorescent images were manually checked to verify that the software had accurately counted the number of living and dead worms.
# The counts of the living and dead worms as a function of time were then analyzed for each of the worm populations and used to prepare Kaplan-Meier survival curves and associated statistics for each of the worm populations. […] The median lifespan is shown as the length of time after the last mitotic division that 50% of the test population remains viable when compared to the control population. The maximum lifespan extension is shown as the length of time after the last mitotic division that 5% of the test population remains viable when compared to the control population.
# The counts of the living and dead worms as a function of time and the Kaplan-Meier survival curves and the associated statistics were then analyzed for each of the worm populations. The analysis included determining mean and median lifespan. The analysis included a non-parametric test, the Log-Rank test, which compares two survival functions for the overall lifespan assay and provides a reliable p-value summarizing the whole experiment. The analysis also included Fisher's Exact Test that calculated the significance of survival function comparisons at multiple specific time points throughout the experiment, rather than for the overall lifespan. The results of the analysis are shown below in Tables 10-17. […]
# human Nrf2 = test: Nrf2 reporter assay, agonist mode (native receptor, ARE-luciferase, CV1); format: cell-based; conditions: for agonist activity against human Nrf2: at the concentrations tested
# [2] = system: NF-κB reporter cells (HEK293); conditions: human, 24 h
# [3] = 0.1 mg/ml, compared to DMSO control
# [4] = 10 mg/ml, compared to DMSO control
# [5] = at 10 μM and 1 (unit not given)
structure (smiles),measurement,setting,value
"O=C(O)CCCCC1CCSS1 (racemic) [Alpha lipoic acid, alpha lipoic acid]",activation of Nrf2 against a control,Nrf2; at 100 μM and 30 (unit not given),demonstrated activation of Nrf2
same,minimum inducing concentration (Nrf2),Nrf2,1.75 µM
same,anti-ageing activity / effect on chronological lifespan,[1],significant positive and dose dependent increase of chronological lifespan
same,Nrf2 Fold-Activation,human Nrf2; 1.42 μg/ml active ingredient,1.4 fold
same,Nrf2 Fold-Activation,human Nrf2; 4.25 μg/ml active ingredient,1.4 fold
same,Nrf2 Fold-Activation,human Nrf2; 12.7 μg/ml active ingredient,1.5 fold
same,Nrf2 Fold-Activation,human Nrf2; 38.23 μg/ml active ingredient,1.5 fold
same,Nrf2 Fold-Activation,human Nrf2; 114.70 μg/ml active ingredient,2.4 fold
same,agonist activity against human Nrf2,human Nrf2,very low-level agonist activity
same,NF-κB % Live Cell,[2]; 1.42 μg/ml,100%
"COc1cc(/C=C/C(=O)CC(=O)/C=C/c2ccc(O)c(OC)c2)ccc1O [Curcumin, curcumin]",Nrf2 Fold-Activation,human Nrf2; 0.007 μg/ml active ingredient,1.6 fold
same,Nrf2 Fold-Activation,human Nrf2; 0.022 μg/ml active ingredient,1.7 fold
same,Nrf2 Fold-Activation,human Nrf2; 0.067 μg/ml active ingredient,1.4 fold
same,Nrf2 Fold-Activation,human Nrf2; 0.20 μg/ml active ingredient,0.96 fold
same,Nrf2 Fold-Activation,human Nrf2; 0.60 μg/ml active ingredient,1.0 fold
same,Nrf2 Fold-Activation,human Nrf2; 1.81 μg/ml active ingredient,1.6 fold
same,NF-κB % Live Cell,[2]; 0.6 μg/ml,99%
same,NF-κB % Live Cell,[2]; 1.81 μg/ml,97%
"COc1ccc([C@@H]2CC(=O)c3c(O)cc(O)cc3O2)cc1O [Hesperetin, (S)-2,3-Dihydro-5,7-dihydroxy-2-(3-hydroxy-4-methoxyphenyl)-4H-1-benzopyran-4-one]",Nrf2 Fold-Activation,human Nrf2; 0.043 μg/ml active ingredient,1.4 fold
same,Nrf2 Fold-Activation,human Nrf2; 0.389 μg/ml active ingredient,1.3 fold
same,Nrf2 Fold-Activation,human Nrf2; 1.167 μg/ml active ingredient,1.5 fold
same,Nrf2 Fold-Activation,human Nrf2; 3.5 μg/ml active ingredient,0.94 fold
same,NF-κB % Live Cell,[2]; 0.043 μg/ml,98%
same,NF-κB % Live Cell,[2]; 0.389 μg/ml,99%
same,NF-κB % Live Cell,[2]; 1.167 μg/ml,98%
same,NF-κB % Live Cell,[2]; 3.5 μg/ml,96%
"COc1ccc([C@@H]2CC(=O)c3c(O)cc(O[C@@H]4O[C@H](CO[C@@H]5O[C@@H](C)[C@H](O)[C@@H](O)[C@H]5O)[C@@H](O)[C@H](O)[C@H]4O)cc3O2)cc1O [N347, Hesperidin]",% Change in Mean Lifespan,[1]; [3],+10%
same,extension of lifespan,"[1]; 0.1 mg/ml, vs DMSO control",about 10%
same,population age in days at 25% mortality,[1]; 0.1 mg/ml,11 days
same,population age in days at 50% mortality,[1]; 0.1 mg/ml,16 days
same,population age in days at 75% mortality,[1]; 0.1 mg/ml,18 days
same,Statistically Significant Result,[1]; [4],No statistical difference
same,population age in days at 25% mortality,[1]; 10 mg/ml,11 days
same,population age in days at 50% mortality,[1]; 10 mg/ml,14 days
same,population age in days at 75% mortality,[1]; 10 mg/ml,18 days
same,anti-ageing activity / effect on chronological lifespan,[1],significant positive and dose dependent increase of chronological lifespan
"O=c1c(O)c(-c2ccc(O)c(O)c2)oc2cc(O)cc(O)c12 [Quercetin, 2-(3,4-dihydroxyphenyl)-3,5,7-trihydroxy-4H-chromen-4-one]",concentration giving more Nrf2 activation,Nrf2; 10 μM compared with 1 μM,more activation at the 1 μM concentration
same,activation of Nrf2 against a control,Nrf2; [5],demonstrated activation of Nrf2
same,minimum inducing concentration (Nrf2),Nrf2,0.55 µM
same,Statistically Significant Result,[1]; [4],No statistical difference
same,anti-ageing activity / effect on chronological lifespan,[1],significant negative effect on chronological lifespan
same,agonist activity against human Nrf2,human Nrf2,low-level agonist activity
same,NF-κB % Live Cell,[2]; 23 μg/ml,97%
same,NF-κB % Live Cell,[2]; 68 μg/ml,77*** %
"Oc1ccc(/C=C/c2cc(O)cc(O)c2)cc1 [Resveratrol, 3,5,4′-trihydroxy-trans-stilbene]",activation of Nrf2 against a control,Nrf2; [5],demonstrated activation of Nrf2
same,Statistically Significant Result,[1]; [3],No statistical difference
same,anti-ageing activity / effect on chronological lifespan,[1],significant positive and dose dependent increase of chronological lifespan
same,NF-κB % Live Cell,[2]; 0.28 μg/ml,100%
same,NF-κB % Live Cell,[2]; 0.85 μg/ml,100%
same,NF-κB % Live Cell,[2]; 1.81 μg/ml,99%
"C[C@@H]1O[C@@H](OC[C@H]2O[C@@H](Oc3c(-c4ccc(O)c(O)c4)oc4cc(O)cc(O)c4c3=O)[C@H](O)[C@@H](O)[C@@H]2O)[C@H](O)[C@H](O)[C@H]1O [Rutin, quercetin-3-O-rutinoside]",NF-κB % Live Cell,[2]; 1.11 μg/ml,99%
same,NF-κB % Live Cell,[2]; 3.3 μg/ml,98%
same,NF-κB % Live Cell,[2]; 30 μg/ml,97%
